System: HBV cccDNA (HBeAg level in HepDES19 cells)
Test: Engineered HepDES19 primary screen assay (HBeAg ELISA as surrogate marker for cccDNA)
Format: cell-based
Conditions: Hepatitis B virus, HepDES19, 120 h
Text: The assay was employed to screen for novel HBV cccDNA inhibitors. HepDES19 is a HBV cccDNA-producing cell line. In this cell line, HBeAg in the cell culture supernatant as surrogate marker, as HBeAg production depends on cccDNA level and activity. HepDES19 is an engineered cell line which contains a 1.1 unit length HBV genome, and pgRNA transcription from the transgene is controlled by Tetracycline (Tet). In the absence of Tet, pgRNA transcription will be induced, but HBV e antigen (HBeAg) could not be produced from this pgRNA due to very short leader sequence before the HBeAg start codon and the start codon is disrupted. Only after cccDNA is formed, the missing leader sequence and start codon mutation would be restored from the 3′-terminal redundancy of pgRNA, and then HBeAg could be synthesized. Therefore, HBeAg could be used as a surrogate marker for cccDNA (Zhou, T. et al., Antiviral Res. (2006), 72(2), 116-124; Guo, H. et al., J. Virol. (2007), 81(22), 12472-12484).
HepDES19 cells were seeded at 2×10^6 cells per T150 flask and cultured with the culture medium (Dulbecco's Modified Eagle Medium: Nutrient Mixture F-12 [DMEM-F12, Gibco Cat. 11320-82], 10% Fetal Bovine Serum [FBS, Clontech Cat. 631101], 0.1 mM Non-Essential Amino Acids Solution [NEAA, Gibco Cat. 11140-050], 50 μg/mL Penicillin-Streptomycin [PS, Invitrogen Cat. 15140-163], 500 μg/mL Geneticin [G418, Invitrogen Cat. 10131-027]) containing 3 μg/mL Tet (Sigma, Cat. 87128) for 5 days. Cells were then seeded at 4×10^6 cells per T150 in the same culture medium as described above in the absence of Tet for 8 days. Cells were then harvested and frozen at density of 2×10^6 cells per mL. For compound testing, the frozen cells were thawed and seeded into 96-well plates at a density of 6×10^4 cells per well. At 24 hrs after seeding, half log serial dilutions of compounds made with Dimethyl sulfoxide (DMSO, Sigma, Cat. D2650) were further diluted with the same culture medium as described above before they were added to the cells to reach desired final compound concentrations and 1% DMSO concentration. Plates were then incubated at 37° C. for another 5 days before measurement of HBeAg level and cell viability. Intracellular HBeAg level were measured with enzyme-linked immunosorbent assay (ELISA) kit (Shanghai Kehua Diagnostic Medical Products Co., Ltd). Cell viability was assessed using Cell Counting Kit-8 (Donjindo, Cat. CK04-20). IC50 values were derived from the dose-response curve using 4 parameter logistic curve fit method.
The compounds of the present invention were tested for their capacity to inhibit extracellular HBeAg level as described herein.

Row | Structure (SMILES) | IC50
1 | Clc1cccc2cnc(-c3ccc(Br)cc3)nc12 [Example 1, 2-(4-Bromophenyl)-8-chloroquinazoline] | 100 nM
2 | Clc1cccc2cnc(-c3cccc(Br)c3)nc12 [Example 2, 2-(3-Bromophenyl)-8-chloroquinazoline] | 360 nM
3 | Cc1nc(-c2cccc(C(F)(F)F)c2)nc2cc(Br)ccc12 [Example 3, 7-Bromo-4-methyl-2-[3-(trifluoromethyl)phenyl]quinazoline] | 750 nM
4 | Cc1nc(-c2cccc(Br)c2)nc2cc(C(F)(F)F)c(Cl)cc12 [Example 4, 2-(3-Bromophenyl)-6-chloro-4-methyl-7-(trifluoromethyl)quinazoline] | 3620 nM
5 | Oc1ccc(-c2ncc3cccc(Cl)c3n2)cc1 [Example 5, 4-(8-Chloroquinazolin-2-yl)phenol] | 4350 nM
6 | COC(=O)c1cccc(COc2ccc(-c3ncc4cccc(Cl)c4n3)cc2)c1 [Example 6, Methyl 3-((4-(8-chloroquinazolin-2-yl)phenoxy)methyl)benzoate] | 6160 nM
7 | O=C(O)c1cccc(COc2ccc(-c3ncc4cccc(Cl)c4n3)cc2)c1 [Example 7, 3-((4-(8-Chloroquinazolin-2-yl)phenoxy)methyl)benzoic acid] | 220 nM
8 | Cc1nc(-c2ccc(OCc3cccc(C(=O)O)c3)cc2)nc2c(Cl)cccc12 [Example 8, 3-((4-(8-Chloro-4-methylquinazolin-2-yl)phenoxy)methyl)benzoic acid] | 460 nM
9 | Cc1nc(-c2ccc(OCCO)cc2)nc2c(Cl)cccc12 [Example 9, 2-[4-(8-Chloro-4-methyl-quinazolin-2-yl)phenoxy]ethanol] | 1930 nM
10 | COC(=O)COCCOc1ccc(-c2nc(C)c3cccc(Cl)c3n2)cc1 [Example 10, Methyl 2-[2-[4-(8-chloro-4-methyl-quinazolin-2-yl)phenoxy]ethoxy]acetate] | 1040 nM
11 | Cc1nc(-c2ccc(OCCOCC(=O)O)cc2)nc2c(Cl)cccc12 [Example 11, 2-[2-[4-(8-Chloro-4-methyl-quinazolin-2-yl)phenoxy]ethoxy]acetic acid] | 4490 nM
12 | Cc1nc(-c2ccc(OCCO[C@H]3C[C@@H](C(=O)O)C3)cc2)nc2c(Cl)cccc12 [Example 12, cis-3-[2-[4-(8-Chloro-4-methyl-quinazolin-2-yl)phenoxy]ethoxy]cyclobutanecarboxylic acid] | 63 nM
13 | Cc1nc(-c2ccc(Cl)cc2)nc2c(Cl)cccc12 [Example 13, 8-Chloro-2-(4-chlorophenyl)-4-methylquinazoline] | 1030 nM
14 | Cc1nc(-c2ccc(OCCOCC(=O)O)cc2)nc2cc(C(F)(F)F)ccc12 [Example 14, 2-(2-(4-(4-Methyl-7-(trifluoromethyl)quinazolin-2-yl)phenoxy)ethoxy)acetic acid] | 29900 nM
15 | Cc1nc(-c2ccc(OCCOC3CC(C(=O)O)C3)cc2)nc2cc(C(F)(F)F)ccc12 (centres unmarked) [Example 15, 3-(2-(4-(4-Methyl-7-(trifluoromethyl)quinazolin-2-yl)phenoxy)ethoxy) cyclobutanecarboxylic acid] | 60 nM
16 | COCc1nc(-c2cccc(Br)c2)nc2cc(C(F)(F)F)ccc12 [Example 16, 2-(3-Bromophenyl)-4-(methoxymethyl)-7-(trifluoromethyl)quinazoline] | 2390 nM
17 | CN(C)Cc1nc(-c2cccc(Br)c2)nc2cc(C(F)(F)F)ccc12 [Example 17, 1-(2-(3-Bromophenyl)-7-(trifluoromethyl)quinazolin-4-yl)-N,N-dimethylmethanamine] | 4660 nM
18 | FC(F)(F)c1ccc2c(CN3CCOCC3)nc(-c3cccc(Br)c3)nc2c1 [Example 18, 4-((2-(3-Bromophenyl)-7-(trifluoromethyl)quinazolin-4-yl)methyl)morpholine] | 1930 nM
19 | OCc1nc(-c2cccc(Br)c2)nc2cc(C(F)(F)F)ccc12 [Example 20, (2-(3-Bromophenyl)-7-(trifluoromethyl)quinazolin-4-yl)methanol] | 3660 nM
20 | OCc1nc(-c2ccc(Cl)cc2)nc2c(Cl)cccc12 [Example 21, (8-Chloro-2-(4-chlorophenyl)quinazolin-4-yl)methanol] | 94 nM
21 | Cc1nc(-c2cccc(CO)c2)nc2cc(C(F)(F)F)ccc12 [Example 22, (3-(4-Methyl-7-(trifluoromethyl)quinazolin-2-yl)phenyl)methanol] | 7130 nM

Row | Structure (SMILES) | IC50
22 | Cc1nc(-c2ccc(Cl)nc2)nc2c(Cl)cccc12 [Example 23, 8-Chloro-2-(6-chloropyridin-3-yl)-4-methylquinazoline] | 220 nM
23 | Clc1ccc(-c2ncc3cccc(Cl)c3n2)cn1 [Example 24, 8-Chloro-2-(6-chloropyridin-3-yl)quinazoline] | 94 nM
24 | Oc1ccc(-c2ncc3cccc(Cl)c3n2)cn1 [Example 25, 5-(8-Chloroquinazolin-2-yl)pyridin-2-ol] | 4680 nM
25 | CN(C)c1ccc(-c2ncc3cccc(Cl)c3n2)cn1 [Example 26, 5-(8-Chloroquinazolin-2-yl)-N,N-dimethylpyridin-2-amine] | 91 nM
26 | Clc1cccc2cnc(-c3ccc(N4CCOCC4)nc3)nc12 [Example 27, 4-(5-(8-Chloroquinazolin-2-yl)pyridin-2-yl)morpholine] | 590 nM
27 | OCCN(CCO)c1ccc(-c2ncc3cccc(Cl)c3n2)cn1 [Example 28, 2,2′-((5-(8-Chloroquinazolin-2-yl)pyridin-2-yl)azanediyl)diethanol] | 300 nM
28 | COC(=O)C1CCN(c2ccc(-c3ncc4cccc(Cl)c4n3)cn2)CC1 [Example 29, Methyl 1-(5-(8-chloroquinazolin-2-yl)pyridin-2-yl)piperidine-4-carboxylate] | 1230 nM
29 | O=C(O)C1CCN(c2ccc(-c3ncc4cccc(Cl)c4n3)cn2)CC1 [Example 30, 1-(5-(8-chloroquinazolin-2-yl)pyridin-2-yl)piperidine-4-carboxylic acid] | 7630 nM
30 | O=C(O)c1nc(-c2cccc(Br)c2)nc2cc(C(F)(F)F)ccc12 [Example 31, 2-(3-Bromo-phenyl)-7-trifluoromethyl-quinazoline-4-carboxylic acid] | 17800 nM
31 | COC(=O)c1nc(-c2cccc(Br)c2)nc2cc(C(F)(F)F)ccc12 [Example 32, Methyl 2-(3-bromophenyl)-7-(trifluoromethyl)quinazoline-4-carboxylate] | 6190 nM
32 | COc1ccc(-c2nc(C(=O)O)c3cccc(Cl)c3n2)cc1 [Example 33, 8-Chloro-2-(4-methoxyphenyl)quinazoline-4-carboxylic acid] | 7750 nM
33 | COc1ccc(-c2nc(C(N)=O)c3cccc(Cl)c3n2)cc1 [Example 34, 8-chloro-2-(4-methoxyphenyl)quinazoline-4-carboxamide] | 2220 nM
34 | COc1ccc(-c2nc(C(=O)NCCO)c3cccc(Cl)c3n2)cc1 [Example 35, 8-Chloro-N-(2-hydroxyethyl)-2-(4-methoxyphenyl)quinazoline-4-carboxamide] | 16100 nM
35 | COc1ccc(-c2ncc3cccc(Cl)c3n2)cc1 [Example 36, 8-Chloro-2-(4-methoxyphenyl)quinazoline] | 180 nM
36 | O=C(O)c1nc(-c2ccc(Br)cc2)nc2c(Cl)cccc12 [Example 37, 2-(4-Bromophenyl)-8-chloroquinazoline-4-carboxylic acid] | 2240 nM
37 | CCOC(=O)c1nc(-c2ccc(Br)cc2)nc2c(Cl)cccc12 [Example 38, ethyl 2-(4-bromophenyl)-8-chloro-quinazoline-4-carboxylate] | 1160 nM
38 | O=C(NCCCl)c1nc(-c2ccc(Br)cc2)nc2c(Cl)cccc12 [Example 39, 2-(4-Bromophenyl)-8-chloro-N-(2-chloroethyl)quinazoline-4-carboxamide] | 1170 nM
39 | Cc1nc(-c2ccc(Br)cc2)nc2c(Cl)cccc12 [Example 40, 2-(4-Bromophenyl)-8-chloro-4-methyl-quinazoline] | 82 nM
40 | O=C(O)[C@H]1C[C@@H](OCCOc2ccc(-c3ncc4cccc(Cl)c4n3)cc2)C1 [Example 42, cis-3-[2-[4-(8-Chloroquinazolin-2-yl)phenoxy]ethoxy]cyclobutanecarboxylic acid] | 16900 nM
41 | O=C(O)c1nc(-c2ccc(Br)cc2)nc2cc(C(F)(F)F)ccc12 [Example 43, 2-(4-Bromophenyl)-7-(trifluoromethyl)quinazoline-4-carboxylic acid] | 12900 nM
